Activity calls are given as the source filed them. No cut-off for these calls is given here.
Assays:
[1] = target: Trypanothione reductase (Trypanosoma cruzi) (UniProt P28593); assay: Tested for inhibition of NADPH-reduced trypanothione reductase (TR)
[2] = Half-life was measured in the presence of NADPH at 20 uM; No inhibition; type: ADME
[3] = Half-life was measured in the presence of NADPH at 20 uM; type: ADME
[4] = target: Trypanothione reductase (Trypanosoma cruzi) (UniProt P28593); assay: Tested for inhibition of NADPH-reduced trypanothione reductase (TR); No inhibition

Chain of UniProt P28593 (P28593 whole entry, looked up): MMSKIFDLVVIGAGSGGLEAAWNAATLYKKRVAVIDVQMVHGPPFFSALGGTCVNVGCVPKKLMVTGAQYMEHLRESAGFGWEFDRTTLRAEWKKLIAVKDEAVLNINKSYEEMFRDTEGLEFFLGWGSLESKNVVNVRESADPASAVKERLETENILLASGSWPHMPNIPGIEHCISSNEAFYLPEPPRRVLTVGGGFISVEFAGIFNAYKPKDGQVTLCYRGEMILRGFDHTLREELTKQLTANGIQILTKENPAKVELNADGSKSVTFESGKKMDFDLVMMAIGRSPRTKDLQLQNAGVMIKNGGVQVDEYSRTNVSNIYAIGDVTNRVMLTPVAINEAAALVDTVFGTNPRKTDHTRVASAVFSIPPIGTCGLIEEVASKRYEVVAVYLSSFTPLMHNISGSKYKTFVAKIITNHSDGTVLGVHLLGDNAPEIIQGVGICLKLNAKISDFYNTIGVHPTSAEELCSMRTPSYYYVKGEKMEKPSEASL

Substance | K obs [1] [M⁻¹ s⁻¹] | T1/2 [3] [min] | other results
(2-Hydroxyethanethiolato)(2,2':6'2''-terpyridine)platinum (II) Nitrate [listing 1 of 2 here] | 40 | – | –
(S-Glutathionato)-(4'-Chloro-2,2':6'2''-terpyridine)platinum (II) Nitrate [listing 1 of 2 here] | – | – | NI [2]: Not Active
(2-Hydroxyethanethiolato)(2,2':6'2''-terpyridine)platinum (II) Nitrate [listing 2 of 2 here] | – | 35 | –
(4-Picoline)(2,2':6'2''-terpyridine)platinum (II) Bis (tetrafluoroborate) [listing 1 of 2 here] | 85 | – | –
(4-Picoline)(2,2':6'2''-terpyridine)platinum (II) Bis (tetrafluoroborate) [listing 2 of 2 here] | – | 11 | –
(S-Glutathionato)-(4'-Chloro-2,2':6'2''-terpyridine)platinum (II) Nitrate [listing 2 of 2 here] | – | – | NI [4]: inactive

— ChEMBL document CHEMBL1133550, “(2,2':6',2"-Terpyridine)platinum(II) complexes are irreversible inhibitors of Trypanosoma cruzi trypanothione reductase but not of human glutathione reductase” (J Med Chem, 2000)
